Source: patent US5614370A, “Assay to identify human C5a antagonists and agonists” (Merck & Co., Inc., priority 1994, dated 1997)
Non-standard residues stand in square brackets, D forms with d. Residues, ends and D or L forms follow the SMILES beside them. No end group written: not given here. Cha = N[C@@H](CC1CCCCC1)C(=O)O; dCha = N[C@H](CC1CCCCC1)C(=O)O

How the values were obtained:
C5a receptor [1] = biological target: T1, C5a receptor (Homo sapiens, UniProt P21730); assay: biochemical; format: binding; conditions: for IC50: read-out: IC50 exhibited by the unlabeled ligand
T1 construct: followed by a 20 μL aliquot of neutrophil membrane; endogenous in cells
T1 sequence (P21730 1-350): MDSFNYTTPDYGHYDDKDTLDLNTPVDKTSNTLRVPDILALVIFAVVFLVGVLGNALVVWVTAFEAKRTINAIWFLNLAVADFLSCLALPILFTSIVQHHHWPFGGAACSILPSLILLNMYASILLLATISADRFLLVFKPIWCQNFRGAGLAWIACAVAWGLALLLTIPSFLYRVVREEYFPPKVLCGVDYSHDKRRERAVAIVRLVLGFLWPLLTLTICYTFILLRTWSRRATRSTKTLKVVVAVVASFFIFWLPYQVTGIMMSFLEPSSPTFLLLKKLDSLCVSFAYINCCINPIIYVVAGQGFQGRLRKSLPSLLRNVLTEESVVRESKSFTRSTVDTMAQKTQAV
Protocol: Initially, we attempted to conduct binding studies with ^125 I radiolabeled C009: ^125 I-Tyr Phe Lys Ala Cha Cha Leu dPhe Arg, SEQ.ID:1:, wherein Cha is cyclohexylalanine, and dPhe is the D isomer of phenylalanine. This compound is a C5a agonist displaying a Ki for C5a of 8 nM. The presence of the tyrosine allowed us to radioiodinate the peptide and establish a binding assay in which both C5a (IC50=0.1 nM) and unlabeled C009 (IC50 =10 nM) inhibit the binding of ^125 I-C009 with concentration dependencies similar to those obtained from competition experiments against ^125 I-C5a.
(§1) In FIG. 1, unlabeled C013 is used to compete with ^125 I-labeled C5a. […] In FIG. 2, the C013 is ^125 I labeled. Unlabeled C5a and unlabeled C013 are each used to compete the labeled C013 from C5a binding sites on the membranes. […] In FIG. 3a, ^125 I-C5a is competed from its binding site by unlabeled C064 and unlabeled, natural C5a (as opposed to recombinant C5a, which, however, may also obviously may be used for these purposes). […] In FIG. 3b, the inverse experiment is shown, wherein ^125 I-C064 is displaced by unlabeled C064 and unlabeled nC5a.
Peptide (5 nMoles) are added to 40μL of 0.1 M sodium phosphate, pH 7.6, in a tube, followed by 2 mCi of ^125 I in 20 μL. 10 μL of a freshly made 0.5 mg/mL solution of chloramine T is then added. After 30 seconds of incubation, 10 μL of a freshly prepared 2 mg/mL solution of Na2 S2 O3 is added, the tube is vortexed, and the sample loaded onto a Vydac C4 reverse phase column. The column is developed with a TFA/acetonitrile gradient and the iodinated peptide is isolated. The material is stored at 4° C. in the elution buffer.
To 205 μL binding buffer (50 mM HEPES, pH 7.2, containing 5 mM MgCl2, 1mM CaCl2, 0.5% BSA) in a polypropylene tube is added 30,000CPM of the ^125 I peptide in 20 μL, and 5 μL of a known dilution of the test compound or diluent, followed by a 20 μL aliquot of neutrophil membrane [equivalent to 500,000 neutrophils; Rollins, T.E. et al., J. Biol Chem. 260:7157 (1985); see also U.S. Pat. No. 5,177,190, herein incorporated by reference].
The assay mixture is incubated for 2 hours at 29° C. Binding buffer (2 mL) is then added, the tube is vortexed, and the contents filtered over a Wattmann GF/C filter soaked in 0.33% polyethylenimine. An additional aliquot of binding buffer (2 mL) is added to the tube to rinse the tube, and is then used to wash the filter. The filters are removed from the apparatus and counted. Non-specific backgrounds are determined by performing assays in the presence of either 10 nM C5a, or 1 μM unlabeled peptide. Compounds which inhibit the binding of the labeled peptide are considered to be potential active compounds.

C5a receptor [2] = biological target: T1, C5a receptor; assay: Competition binding against 125I-labeled intact C5a on human neutrophil (PMN) membranes; conditions: for IC50: labeled ligand 125I-C5a, read-out: IC50 exhibited by the unlabeled ligand
From the text: The affinity of these peptides is shown, for example, by radiolabeling intact C5a, and using the unlabeled peptide to compete the labeled C5a from C5a receptor binding sites on cellular membranes. Preparations of polymorphonuclear leukocytes (PMN's) are known to express the C5a receptor, (inhibition of the chemotactic response to C5a of this type of cell is one desirable utility for compounds identified by the instant assay). One method for preparing these membranes is described by Rollins, T. E. et al., [J. Biol. Chem. 264:520-526 (1988); see also U.S. Pat. No. 5,177,190, herein incorporated by reference as a method for isolating and purifying C5a receptor]. Briefly, this involves isolating PMN's in large quantity, disrupting these cells and obtaining the membrane fraction by centrifugation. Protein assay of the membrane preparation allows for standardization of the amount of protein added in any set of membrane binding experiments.
as §1
Hexapeptides within this class differing only at position X have similar affinities for the C5a receptor. As measured in competition binding experiments against ^125 I-C5a on human neutrophil membranes their IC50 's varied by only a factor of 3, from 25 to 80 nM (Table II):
^2 Binding experiments were carried out with human neutrophil
Binding is initiated by an addition of 20 μL of PMN membrane (typically 0.5 μg of protein) to each tube. After incubation for 90 min. at room temperature 2 ml of 0.05 M HEPES, pH 7.2, containing 0.5% BSA are added to the tube, the contents vortexed and filtered over a Whatman GF/C filter which has been soaked in 0.3% polyethylenimine. An additional 2 ml of buffer are added to the tube and used to wash the filter. All of the test samples are dissolved in DMSO, another water miscible organic solvent, or in an aqueous solvent. Non-specific background was determined by inclusion of a 100-fold excess of unlabeled C5a.
The percent inhibition is calculated according to the following formula: [formula]
Iodination of C5a was carded out with the use of chloramine T. (Rollins, T.E., and Springer, M.S. (1985) J. Biol. Chem. 260, 7157-7160). […] Concentrations of C5a were determined by amino acid analysis and by RIA (Amersham Corp.). Membranes were prepared from human PMN as described by Rollins, T.E., Sciliano, S and Springer, M.S., J. Biol Chem 264 520-526 (1988).

human neutrophils = assay: Degranulation, myeloperoxidase (MPO) release from human neutrophils (agonism); format: cell-based; conditions: 0.4 nM C5a or 8 nM IL-8, cells without C089
Protocol: FIG. 5A and 5B. Degranulation and Ca^2+ responses to the hexapeptides. […] The ED50 's for the degranulation are: C5a, 0.5 nM; C028, 0.2 μM; C026, 1 μM. C5a, maximally, released 57% of the total cellular content of MPO. The ability of these molecules to elicite a Ca^2+ -flux is shown in B. The concentrations used for C028 (10 μM), C026 (10 μM), C061 (100 μM) are those which produce a maximal flux. A saturating concentration was also used for C5a (1 nM).
This assay was performed on human neutrophils as previously reported and it is a measure of C5a or peptide induced exocytosis (Rollins, T. E. and Springer, M. S. (1985) J. Biol. Chem. 260, 7157-7160).
The functional properties of two of the peptides, C026, and C028, were originally described by Mollison et. al (Mollison, K. W., Krause, R. A., Fey, T. A., Miller, L., Wiedeman, P. e., Kawai, M., Lane, B., Luly, J. R. and Carter, G. W. (1992) FASEB J. 6, A2058). […] We have reinvestigated the degranulating activities of these peptides as measured by the release of myeloperoxidase (MPO) from human neutrophils. […] The EC50 /IC50 (degranulation/binding) for C028 is 8, the same as that measured for C5a (Table II, FIG. 5A). […] However, the difference in activity between C026 and C028 is significant and reproducible. Since the structural difference between the two is the substitution of an aromatic for an aliphatic residue (Phe for Cha) we chose to make additional changes at position 5 which further increased aromaticity. […] To further examine whether the differences in activity between the peptides reflects the increased aromaticity we synthesized a molecule with Leu, an aliphatic amino acid, at position 5 (C068, Table II).

Molecule: CSCC[C@H](NC=O)C(=O)N[C@@H](CC(C)C)C(=O)N[C@@H](Cc1ccccc1)C(=O)O [fMLP, N-formyl-methionyl-leucyl-phenylalanine, reference compound]
- effect on binding of C5a COOH-terminal peptides in words (C5a receptor [1]; 125I-C009 for fMLP and IL-8, COOH-terminal peptides for L-584,020): neither

Molecule: Tyr Phe Lys Pro dCha Cha dArg (YFKP[dCha][Cha][dR]) [C064, name also used for the 125I-Tyr peptide]
- IC50 (C5a receptor [2]): 8 nM
- non-specific binding of the labeled peptide (C5a receptor [1]): low non-specific binding
- IC50 (C5a receptor [1]; labeled ligand 125I-C064): 1.5 nM

Molecule: IL-8: chemokine IL-8
- release of total cellular MPO (human neutrophils): 19%

Molecule: CC(C)C[C@H](NC(=O)CNC(=O)[C@H](CC1CCCCC1)NC(=O)[C@H](C)NC(=O)[C@H](CCCCN)NC(=O)[C@H](Cc1ccccc1)NC(=O)[C@@H](N)Cc1ccc(O)cc1)C(=O)N[C@H](Cc1ccccc1)C(=O)N[C@@H](CCCNC(=N)N)C(=O)O [C013, Tyr Phe Lys Ala Cha Gly Leu dPhe Arg] (H-YFKA[Cha]GL[dF]R-OH)
- IC50 (C5a receptor [2]): 14 nM
- binding affinity relative to 125I-C009 (C5a receptor [1]): about 30 fold
- IC50 (C5a receptor [1]; labeled ligand 125I-C013): 1 nM

Molecule: ^125 I-Tyr Phe Lys Ala Cha Cha Leu dPhe Arg [125I-C009]
- non-specific binding of the labeled peptide (C5a receptor [1]): high non-specific binding

B1: 125I-C5a: C5a iodinated with chloramine T (100-200 mCi/mg) (protein, UniProt P01031 678-751, looked up)
C5a anaphylatoxin: TLQKKIEEIAAKYKHSVVKKCCYDGACVNNDETCEQRAARISLGPRCIKAFTECCVVASQLRANISHKDMQLGR
modifications: C5a anaphylatoxin 125I label
- affinity of radioiodinated C5a in words (C5a receptor [2]; 100-200 mCi/mg): same affinity for the receptor as did the nonderivatized protein
